# Data taken from PubChem BioAssay (NCI).
#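 Protocol summary: plate cells (96-well), add compound at 5 concentrations, incubate 48 h, interpolate endpoints linearly. The concentration for 50% growth inhibition is given as GI50. TGI is the concentration that stops growth completely.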
# Columns and labels:
# Assay in all cases: NCI anticancer screen, dose series, 48 h
# [1] = system: 786-0 renal
# [2] = system: A498 renal
# [3] = system: A549 NSCLC
# [4] = system: ACHN renal
# [5] = system: BT-549 breast
# [6] = system: CAKI-1 renal
# [7] = system: COLO 205 colon
# [8] = system: DU-145 prostate
# [9] = system: EKVX NSCLC
# [10] = system: HCC-2998 colon
# [11] = system: HCT-116 colon
# [12] = system: HCT-15 colon
# [13] = system: HL-60(TB) leukemia
# [14] = system: HOP-62 NSCLC
# [15] = system: HOP-92 NSCLC
# [16] = system: HS 578T breast
# [17] = system: HT29 colon
# [18] = system: IGROV1 ovarian
# [19] = system: K-562 leukemia
# [20] = system: KM12 colon
# [21] = system: LOX IMVI melanoma
# [22] = system: M14 melanoma
# [23] = system: MCF7 breast
# [24] = system: MDA-MB-231 breast
# [25] = system: MDA-MB-435
# [26] = system: MOLT-4 leukemia
# [27] = system: NCI-H226 lung
# [28] = system: NCI-H23 lung
# [29] = system: NCI-H460 lung
# [30] = system: NCI-H522 lung
# [31] = system: NCI/ADR-RES ovarian
# [32] = system: OVCAR-3 ovarian
# [33] = system: OVCAR-4 ovarian
# [34] = system: OVCAR-5 ovarian
# [35] = system: OVCAR-8 ovarian
# [36] = system: PC-3 prostate
# [37] = system: RPMI-8226 leukemia
# [38] = system: RXF 393 renal
# [39] = system: SF-268 CNS
# [40] = system: SF-295 CNS
# [41] = system: SF-539 CNS
# [42] = system: SK-MEL-2 melanoma
# [43] = system: SK-MEL-28 melanoma
# [44] = system: SK-MEL-5 melanoma
# [45] = system: SK-OV-3 ovarian
# [46] = system: SN12C renal
# [47] = system: SNB-19 CNS
# [48] = system: SNB-75 CNS
# [49] = system: SR leukemia
# [50] = system: SW-620 colon
# [51] = system: T-47D breast
# [52] = system: TK-10 renal
# [53] = system: U251 CNS
# [54] = system: UACC-257 melanoma
# [55] = system: UACC-62 melanoma
# [56] = system: UO-31 renal
# [57] = system: CCRF-CEM leukemia
# [58] = system: MALME-3M melanoma
smiles,measurement,setting,value
O=c1cccc(C#CC#C/C=C/CO)o1,GI50,[1],3.72 µM
same,TGI,[1],> 27.5 µM
same,GI50,[2],7.57 µM
same,TGI,[2],22.7 µM
same,GI50,[3],3.65 µM
same,TGI,[3],13.1 µM
same,GI50,[4],2.13 µM
same,TGI,[4],4.86 µM
same,GI50,[5],2.1 µM
same,TGI,[5],5.17 µM
same,GI50,[6],1.91 µM
same,TGI,[6],3.6 µM
same,GI50,[7],2.02 µM
same,TGI,[7],3.56 µM
same,GI50,[8],3.4 µM
same,TGI,[8],12.4 µM
same,GI50,[9],2.77 µM
same,TGI,[9],6.47 µM
same,GI50,[10],2.09 µM
same,TGI,[10],3.52 µM
same,GI50,[11],5.71 µM
same,TGI,[11],> 100 µM
same,GI50,[12],1.98 µM
same,TGI,[12],5.15 µM
same,GI50,[13],3.17 µM
same,TGI,[13],> 100 µM
same,GI50,[14],2.08 µM
same,TGI,[14],4.14 µM
same,GI50,[15],2.74 µM
same,TGI,[15],5.85 µM
same,GI50,[16],6.87 µM
same,TGI,[16],39.9 µM
same,GI50,[17],3.89 µM
same,TGI,[17],> 100 µM
same,GI50,[18],2.82 µM
same,GI50,[19],4.92 µM
same,TGI,[19],> 100 µM
same,GI50,[20],1.64 µM
same,TGI,[20],4.34 µM
same,GI50,[21],1.55 µM
same,TGI,[21],3.32 µM
same,GI50,[22],4.12 µM
same,GI50,[23],2.23 µM
same,GI50,[24],1.87 µM
same,TGI,[24],4.03 µM
same,GI50,[25],1.99 µM
same,TGI,[25],4.69 µM
same,GI50,[26],9.1 µM
same,TGI,[26],> 100 µM
same,GI50,[27],1.31 µM
same,TGI,[27],7.68 µM
same,GI50,[28],1.73 µM
same,TGI,[28],3.18 µM
same,GI50,[29],2.88 µM
same,GI50,[30],1.45 µM
same,GI50,[31],2.52 µM
same,GI50,[32],2.33 µM
same,TGI,[32],6.12 µM
same,GI50,[33],3.1 µM
same,TGI,[33],> 100 µM
same,GI50,[34],2.09 µM
same,TGI,[34],4.34 µM
same,GI50,[35],2.37 µM
same,TGI,[35],6.62 µM
same,GI50,[36],2.94 µM
same,TGI,[36],11.3 µM
same,GI50,[37],2.63 µM
same,TGI,[37],> 100 µM
same,GI50,[38],2.38 µM
same,TGI,[38],7.03 µM
same,GI50,[39],2.44 µM
same,TGI,[39],17.1 µM
same,GI50,[40],5.84 µM
same,TGI,[40],18.8 µM
same,GI50,[41],3.19 µM
same,TGI,[41],8.26 µM
same,GI50,[42],7.52 µM
same,TGI,[42],> 31.3 µM
same,GI50,[43],2.75 µM
same,TGI,[43],10.9 µM
same,GI50,[44],2.48 µM
same,TGI,[44],6.24 µM
same,GI50,[45],10.8 µM
same,TGI,[45],22.8 µM
same,GI50,[46],1.74 µM
same,TGI,[46],4.19 µM
same,GI50,[47],3.06 µM
same,TGI,[47],10.7 µM
same,GI50,[48],17 µM
same,TGI,[48],92.9 µM
same,GI50,[49],> 100 µM
same,TGI,[49],> 100 µM
same,GI50,[50],3.3 µM
same,TGI,[50],> 24.9 µM
same,GI50,[51],2.36 µM
same,TGI,[51],4.46 µM
same,GI50,[52],2.21 µM
same,TGI,[52],4.66 µM
same,GI50,[53],1.89 µM
same,TGI,[53],3.84 µM
same,GI50,[54],2.07 µM
same,TGI,[54],4.7 µM
same,GI50,[55],1.68 µM
same,TGI,[55],3.39 µM
same,GI50,[56],2.6 µM
CCc1ccc(Nc2cc(C)nc3nc(C)nn23)cc1,GI50,[1],> 100 µM
same,TGI,[1],> 100 µM
same,GI50,[2],0.533 µM
same,TGI,[2],78.7 µM
same,GI50,[3],45.4 µM
same,TGI,[3],> 100 µM
same,GI50,[4],34.8 µM
same,TGI,[4],> 100 µM
same,GI50,[5],> 100 µM
same,TGI,[5],> 100 µM
same,GI50,[6],40.1 µM
same,TGI,[6],> 100 µM
same,GI50,[57],48.1 µM
same,TGI,[57],> 100 µM
same,GI50,[7],66.9 µM
same,TGI,[7],> 100 µM
same,GI50,[8],35.1 µM
same,TGI,[8],> 100 µM
same,GI50,[10],> 100 µM
same,TGI,[10],> 100 µM
same,GI50,[11],80.1 µM
same,TGI,[11],> 100 µM
same,GI50,[12],32.8 µM
same,TGI,[12],> 100 µM
same,GI50,[13],> 100 µM
same,TGI,[13],> 100 µM
same,GI50,[14],> 100 µM
same,TGI,[14],> 100 µM
same,GI50,[15],28.9 µM
same,TGI,[15],> 100 µM
same,GI50,[16],39.3 µM
same,TGI,[16],> 100 µM
same,GI50,[17],39.8 µM
same,TGI,[17],> 100 µM
same,GI50,[18],61.2 µM
same,TGI,[18],> 100 µM
same,GI50,[19],35.5 µM
same,TGI,[19],> 100 µM
same,GI50,[20],70.6 µM
same,TGI,[20],> 100 µM
same,GI50,[21],46 µM
same,TGI,[21],> 100 µM
same,GI50,[58],69.5 µM
same,TGI,[58],> 100 µM
same,GI50,[23],36.7 µM
same,TGI,[23],> 100 µM
same,GI50,[24],31.4 µM
same,TGI,[24],> 100 µM
same,GI50,[25],53.8 µM
same,TGI,[25],> 100 µM
same,GI50,[26],33.3 µM
same,TGI,[26],> 100 µM
same,GI50,[27],85 µM
same,TGI,[27],> 100 µM
same,GI50,[28],> 100 µM
same,TGI,[28],> 100 µM
same,GI50,[29],71.1 µM
same,TGI,[29],> 100 µM
same,GI50,[30],42.3 µM
same,TGI,[30],> 100 µM
same,GI50,[31],49.4 µM
same,TGI,[31],> 100 µM
same,GI50,[32],37.8 µM
same,TGI,[32],> 100 µM
same,GI50,[33],27.7 µM
same,TGI,[33],> 100 µM
same,GI50,[34],> 100 µM
same,TGI,[34],> 100 µM
same,GI50,[35],79.8 µM
same,TGI,[35],> 100 µM
same,GI50,[36],53.3 µM
same,TGI,[36],> 100 µM
same,GI50,[37],32 µM
same,TGI,[37],> 100 µM
same,GI50,[38],19.3 µM
same,TGI,[38],> 100 µM
same,GI50,[39],69.1 µM
same,TGI,[39],> 100 µM
same,GI50,[40],78.2 µM
same,TGI,[40],> 100 µM
same,GI50,[41],> 100 µM
same,TGI,[41],> 100 µM
same,GI50,[42],> 100 µM
same,TGI,[42],> 100 µM
same,GI50,[43],48.8 µM
same,TGI,[43],> 100 µM
same,GI50,[44],32.9 µM
same,TGI,[44],> 100 µM
same,GI50,[45],> 100 µM
same,TGI,[45],> 100 µM
same,GI50,[46],46.1 µM
same,TGI,[46],> 100 µM
same,GI50,[47],53.4 µM
same,TGI,[47],> 100 µM
same,GI50,[48],35.6 µM
same,TGI,[48],> 100 µM
same,GI50,[49],53.1 µM
same,TGI,[49],> 100 µM
same,GI50,[50],> 100 µM
same,TGI,[50],> 100 µM
same,GI50,[51],21.3 µM
same,TGI,[51],> 100 µM
same,GI50,[52],61.7 µM
same,TGI,[52],> 100 µM
same,GI50,[53],75.2 µM
same,TGI,[53],> 100 µM
same,GI50,[54],> 100 µM
same,TGI,[54],> 100 µM
same,GI50,[55],37.7 µM
same,TGI,[55],> 100 µM
same,GI50,[56],23.6 µM
same,TGI,[56],> 100 µM
